Experiments:
[1] = wn = mass fraction of the nth substance listed; settings: for surface tension liquid-gas: Maximal bubble pressure; for mass density: 100 kPa, Liquid, Vibrating tube method
[2] = refractive index (Na D-line) (dimensionless); wn = mass fraction of the nth substance listed; settings: 100 kPa, Liquid, Standard Abbe refractometry

CCCCn1cc[n+](C)c1.N[C@@H](CO)C(=O)[O-] [1-butyl-3-methylimidazolium L-serinate] + O
Settings | mass density [kg/m3] | refractive index | surface tension liquid-gas [mN/m]
[1], 298.15 K, w2 = 0.00489 | 1156.16 | – | –
[1], 298.15 K, w2 = 0.00632 | 1156.21 | – | –
[1], 298.15 K, w2 = 0.00706 | – | – | 46.4
[1], 298.15 K, w2 = 0.00783 | 1156.25 | – | –
[1], 298.15 K, w2 = 0.00859 | – | – | 46.7
[1], 298.15 K, w2 = 0.00933 | 1156.29 | – | –
[1], 298.15 K, w2 = 0.01019 | – | – | 46.9
[1], 298.15 K, w2 = 0.01094 | 1156.32 | – | –
[1], 298.15 K, w2 = 0.01171 | – | – | 47.1
[1], 298.15 K, w2 = 0.01331 | – | – | 47.3
[1], 303.15 K, w2 = 0.00489 | 1152.97 | – | –
[1], 303.15 K, w2 = 0.00632 | 1153.01 | – | –
[1], 303.15 K, w2 = 0.00706 | – | – | 46.2
[1], 303.15 K, w2 = 0.00783 | 1153.06 | – | –
[1], 303.15 K, w2 = 0.00859 | – | – | 46.4
[1], 303.15 K, w2 = 0.00933 | 1153.1 | – | –
[1], 303.15 K, w2 = 0.01019 | – | – | 46.7
[1], 303.15 K, w2 = 0.01094 | 1153.15 | – | –
[1], 303.15 K, w2 = 0.01171 | – | – | 46.9
[1], 303.15 K, w2 = 0.01331 | – | – | 47.1
[1], 308.15 K, w2 = 0.00489 | 1149.77 | – | –
[1], 308.15 K, w2 = 0.00632 | 1149.82 | – | –
[1], 308.15 K, w2 = 0.00706 | – | – | 46
[1], 308.15 K, w2 = 0.00783 | 1149.86 | – | –
[1], 308.15 K, w2 = 0.00859 | – | – | 46.2
[1], 308.15 K, w2 = 0.00933 | 1149.91 | – | –
[1], 308.15 K, w2 = 0.01019 | – | – | 46.4
[1], 308.15 K, w2 = 0.01094 | 1149.97 | – | –
[1], 308.15 K, w2 = 0.01171 | – | – | 46.6
[1], 308.15 K, w2 = 0.01331 | – | – | 46.9
[1], 313.15 K, w2 = 0.00489 | 1146.61 | – | –
[1], 313.15 K, w2 = 0.00632 | 1146.67 | – | –
[1], 313.15 K, w2 = 0.00706 | – | – | 45.7
[1], 313.15 K, w2 = 0.00783 | 1146.72 | – | –
[1], 313.15 K, w2 = 0.00859 | – | – | 45.9
[1], 313.15 K, w2 = 0.00933 | 1146.76 | – | –
[1], 313.15 K, w2 = 0.01019 | – | – | 46.1
[1], 313.15 K, w2 = 0.01094 | 1146.82 | – | –
[1], 313.15 K, w2 = 0.01171 | – | – | 46.3
[1], 313.15 K, w2 = 0.01331 | – | – | 46.6
[1], 318.15 K, w2 = 0.00489 | 1143.46 | – | –
[1], 318.15 K, w2 = 0.00632 | 1143.52 | – | –
[1], 318.15 K, w2 = 0.00706 | – | – | 45.4
[1], 318.15 K, w2 = 0.00783 | 1143.56 | – | –
[1], 318.15 K, w2 = 0.00859 | – | – | 45.6
[1], 318.15 K, w2 = 0.00933 | 1143.61 | – | –
[1], 318.15 K, w2 = 0.01019 | – | – | 45.8
[1], 318.15 K, w2 = 0.01094 | 1143.65 | – | –
[1], 318.15 K, w2 = 0.01171 | – | – | 46
[1], 318.15 K, w2 = 0.01331 | – | – | 46.3
[1], 323.15 K, w2 = 0.00489 | 1140.24 | – | –
[1], 323.15 K, w2 = 0.00632 | 1140.3 | – | –
[1], 323.15 K, w2 = 0.00706 | – | – | 45.2
[1], 323.15 K, w2 = 0.00783 | 1140.34 | – | –
[1], 323.15 K, w2 = 0.00859 | – | – | 45.4
[1], 323.15 K, w2 = 0.00933 | 1140.39 | – | –
[1], 323.15 K, w2 = 0.01019 | – | – | 45.6
[1], 323.15 K, w2 = 0.01094 | 1140.45 | – | –
[1], 323.15 K, w2 = 0.01171 | – | – | 45.8
[1], 323.15 K, w2 = 0.01331 | – | – | 46
[1], 328.15 K, w2 = 0.00489 | 1137.09 | – | –
[1], 328.15 K, w2 = 0.00632 | 1137.16 | – | –
[1], 328.15 K, w2 = 0.00706 | – | – | 44.9
[1], 328.15 K, w2 = 0.00783 | 1137.21 | – | –
[1], 328.15 K, w2 = 0.00859 | – | – | 45.1
[1], 328.15 K, w2 = 0.00933 | 1137.27 | – | –
[1], 328.15 K, w2 = 0.01019 | – | – | 45.3
[1], 328.15 K, w2 = 0.01094 | 1137.32 | – | –
[1], 328.15 K, w2 = 0.01171 | – | – | 45.5
[1], 328.15 K, w2 = 0.01331 | – | – | 45.7
[1], 333.15 K, w2 = 0.00489 | 1133.97 | – | –
[1], 333.15 K, w2 = 0.00632 | 1134.03 | – | –
[1], 333.15 K, w2 = 0.00706 | – | – | 44.7
[1], 333.15 K, w2 = 0.00783 | 1134.08 | – | –
[1], 333.15 K, w2 = 0.00859 | – | – | 44.9
[1], 333.15 K, w2 = 0.00933 | 1134.13 | – | –
[1], 333.15 K, w2 = 0.01019 | – | – | 45.1
[1], 333.15 K, w2 = 0.01094 | 1134.18 | – | –
[1], 333.15 K, w2 = 0.01171 | – | – | 45.3
[1], 333.15 K, w2 = 0.01331 | – | – | 45.5
[1], 338.15 K, w2 = 0.00489 | 1130.83 | – | –
[1], 338.15 K, w2 = 0.00632 | 1130.9 | – | –
[1], 338.15 K, w2 = 0.00706 | – | – | 44.5
[1], 338.15 K, w2 = 0.00783 | 1130.95 | – | –
[1], 338.15 K, w2 = 0.00859 | – | – | 44.7
[1], 338.15 K, w2 = 0.00933 | 1131.01 | – | –
[1], 338.15 K, w2 = 0.01019 | – | – | 44.9
[1], 338.15 K, w2 = 0.01094 | 1131.07 | – | –
[1], 338.15 K, w2 = 0.01171 | – | – | 45.1
[1], 338.15 K, w2 = 0.01331 | – | – | 45.4
[2], 298.15 K, w2 = 0.00594 | – | 1.5125 | –
[2], 298.15 K, w2 = 0.00746 | – | 1.5122 | –
[2], 298.15 K, w2 = 0.00898 | – | 1.5117 | –
[2], 298.15 K, w2 = 0.0105 | – | 1.5112 | –
[2], 298.15 K, w2 = 0.01211 | – | 1.5108 | –
[2], 303.15 K, w2 = 0.00594 | – | 1.5117 | –
[2], 303.15 K, w2 = 0.00746 | – | 1.5113 | –
[2], 303.15 K, w2 = 0.00898 | – | 1.5109 | –
[2], 303.15 K, w2 = 0.0105 | – | 1.5104 | –
[2], 303.15 K, w2 = 0.01211 | – | 1.5099 | –
[2], 308.15 K, w2 = 0.00594 | – | 1.5109 | –
[2], 308.15 K, w2 = 0.00746 | – | 1.5104 | –
[2], 308.15 K, w2 = 0.00898 | – | 1.5101 | –
[2], 308.15 K, w2 = 0.0105 | – | 1.5096 | –
[2], 308.15 K, w2 = 0.01211 | – | 1.5091 | –
[2], 313.15 K, w2 = 0.00594 | – | 1.5099 | –
[2], 313.15 K, w2 = 0.00746 | – | 1.5094 | –
[2], 313.15 K, w2 = 0.00898 | – | 1.5091 | –
[2], 313.15 K, w2 = 0.0105 | – | 1.5087 | –
[2], 313.15 K, w2 = 0.01211 | – | 1.5083 | –
[2], 318.15 K, w2 = 0.00594 | – | 1.5089 | –
[2], 318.15 K, w2 = 0.00746 | – | 1.5084 | –
[2], 318.15 K, w2 = 0.00898 | – | 1.5079 | –
[2], 318.15 K, w2 = 0.0105 | – | 1.5075 | –
[2], 318.15 K, w2 = 0.01211 | – | 1.5071 | –
[2], 323.15 K, w2 = 0.00594 | – | 1.5078 | –
[2], 323.15 K, w2 = 0.00746 | – | 1.5073 | –
[2], 323.15 K, w2 = 0.00898 | – | 1.5068 | –
[2], 323.15 K, w2 = 0.0105 | – | 1.5064 | –
[2], 323.15 K, w2 = 0.01211 | – | 1.5059 | –
[2], 328.15 K, w2 = 0.00594 | – | 1.5071 | –
[2], 328.15 K, w2 = 0.00746 | – | 1.5065 | –
[2], 328.15 K, w2 = 0.00898 | – | 1.5059 | –
[2], 328.15 K, w2 = 0.0105 | – | 1.5055 | –
[2], 328.15 K, w2 = 0.01211 | – | 1.5049 | –
[2], 333.15 K, w2 = 0.00594 | – | 1.5059 | –
[2], 333.15 K, w2 = 0.00746 | – | 1.5055 | –
[2], 333.15 K, w2 = 0.00898 | – | 1.5049 | –
[2], 333.15 K, w2 = 0.0105 | – | 1.5045 | –
[2], 333.15 K, w2 = 0.01211 | – | 1.5041 | –
[2], 338.15 K, w2 = 0.00594 | – | 1.5051 | –
[2], 338.15 K, w2 = 0.00746 | – | 1.5045 | –
[2], 338.15 K, w2 = 0.00898 | – | 1.5041 | –
[2], 338.15 K, w2 = 0.0105 | – | 1.5036 | –
[2], 338.15 K, w2 = 0.01211 | – | 1.5032 | –

Source: the NIST ThermoML archive (doi:10.1016/j.jct.2015.04.029)
